Source: ChEMBL document CHEMBL1149736, “A new acylated N-glycosyl lactam from Aristolochia contorta” (1992)
Converted amounts (≈) assume the structure as drawn.

Columns and labels:
[1] = tested on: Bacillus subtilis; assay: Antibacterial activity against Bacillus subtilis; assay type: functional
[2] = tested on: Micrococcus luteus; assay: Antibacterial activity against Sarcina lutea; assay type: functional

Row | MIC [1] | MIC [2] | SMILES
1 | 43.8 µg/mL (≈ 72.8 µM) | 175 µg/mL (≈ 291 µM) | COc1cccc2c1cc1c3c(cc4c(c32)OCO4)C(=O)N1[C@@H]1O[C@H](COC(=O)/C=C/c2ccc(O)cc2)[C@@H](O)[C@H](O)[C@H]1O
2 |  | 5 µg/mL (≈ 15.5 µM) | O=C(N[C@H](CO)[C@H](O)c1ccc([N+](=O)[O-])cc1)C(Cl)Cl [CHLORAMPHENICOL]
